Test results published in BindingDB's records for patent US20250092039 (Tiger Biotherapeutics, 2025).

Target: GTPase KRas [G12V]/RAF proto-oncogene serine/threonine-protein kinase (Homo sapiens, UniProt P01116, G12V)
Experiment: KRAS/RAF1 Binding Inhibition Assay
Procedure: The test compounds in 2% DMSO (final concentration) at various concentrations were then added to the reaction mixture and incubated for 60 minutes at 4° C.

Structure (SMILES)	IC50
CCc1c(F)ccc2cc(O)cc(-c3ncc4c(N5CCCNC(=O)C5)nc(OCC5(CN6CCC(CN7CCN(c8ccc9c(c8)CN([C@H]8CCC(=O)NC8=O)C9=O)CC7)CC6)CC5)nc4c3F)c12 [US20250092039, Compound 95]	> 200 nM
CCc1c(F)ccc2cc(O)cc(-c3ncc4c(N5CCCNC(=O)C5)nc(OCC5(CN6CCC7(CC6)CC(CN6CCN(c8ccc9c(c8)CN([C@H]8CCC(=O)NC8=O)C9=O)CC6)C7)CC5)nc4c3F)c12 [US20250092039, Compound 93]	≤ 200 nM
